According to US20240368096A1 (Enanta Pharmaceuticals, Inc., priority 2022, published 2024):

What follows are compounds tested on HBV (assay: HBV infection in HepG2-NTCP cells (HBeAg AlphaLISA in supernatants)). Conditions: Hepatitis B virus, 192 h; HBV infection of HepG2-NTCP cells; HBeAg in supernatants at day 8 post infection; read-out: Cellular EC50.
Assay type: cell-based
How it was run: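 Readout was day-8 supernatant HBeAg by AlphaLISA, with EC50 set against DMSO controls and binned A<0.1 μM, B 0.1-1 μM, C>1 μM. Compounds were added 2 h before HBV (2000 GE/cell, 4% PEG, 0.5% DMSO) to HepG2-NTCP A3 cells; from day 1 medium held 2.5% DMSO.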

EC50 | Structure (SMILES)
< 100 nM | COCCOCCOc1cc2c(cc1-c1cc(F)c(C(=O)O)s1)S(=O)(=O)N(C)[C@H](C1CCCCC1)CN2c1ccccc1 [Example 498]
100 to 1000 nM | CC(C)C[C@@H]1CN(c2ccccc2)c2cc(Cl)c(-c3ccc(-c4ccccc4)c(C(=O)O)c3)cc2S(=O)(=O)N1C [Example 215, (R)-4-(7-chloro-3-isobutyl-2-methyl-1,1-dioxido-5-phenyl-2,3,4,5-tetrahydrobenzo[f][1,2,5]thiadiazepin-8-yl)-[1,1′-biphenyl]-2-carboxylic acid]
< 100 nM | CC(C)CCOc1cc2c(cc1-c1ccc(F)c(C(=O)O)c1)S(=O)(=O)N(C)[C@H](C1CCCCC1)CN2c1ccccc1 [Example 359]
> 1000 nM | CN1[C@H](CCc2ccccc2)CN(c2ccccc2)c2cc(Cl)c(-c3ccc(F)c(C(=O)O)c3)cc2S1(=O)=O [Example 53]
> 1000 nM | CN1[C@H](C2CCCCC2)CN(c2ccccc2)c2cc(OCc3cncn3C)c(-c3ccc(F)c(C(=O)O)c3)cc2S1(=O)=O [Example 390]
> 1000 nM | CN1[C@H](CN2CCCCC2)CN(c2ccccc2)c2cc(Cl)c(-c3ccc(F)c(C(=O)O)c3)cc2S1(=O)=O [Example 108, (R)-5-(7-chloro-2-methyl-1,1-dioxido-5-phenyl-3-(piperidin-1-ylmethyl)-2,3,4,5-tetrahydrobenzo[f][1,2,5]thiadiazepin-8-yl)-2-fluorobenzoic acid]
< 100 nM | CN1[C@H](C2CCCCC2)CN(c2ccccc2)c2cc(Oc3ccccc3F)c(-c3ccc(Cl)c(C(=O)O)c3)cc2S1(=O)=O [Example 401, (R)-2-chloro-5-(3-cyclohexyl-7-(2-fluorophenoxy)-2-methyl-1,1-dioxido-5-phenyl-2,3,4,5-tetrahydrobenzo[f][1,2,5]thiadiazepin-8-yl)benzoic acid]
> 1000 nM | CCCC[C@H]1CN(c2ccccc2)c2cc(N(C)c3ccc(F)cc3)c(-c3cccc(C(=O)O)c3)cc2S(=O)(=O)N1C [Example 541]
100 to 1000 nM | CN1[C@H](C2CCCCC2)CN(c2ccccc2)c2cc(C#CC(C)(C)O)c(-c3ccc(F)c(C(=O)O)c3)cc2S1(=O)=O [Example 603]
< 100 nM | CC(C)C[C@@H]1CN(c2ccccc2)c2cc(Oc3ccccc3F)c(-c3ccc(Cl)c(C(=O)O)c3)cc2S(=O)(=O)N1C [Example 424]
< 100 nM | Cc1c(F)cccc1Oc1cc2c(cc1-c1ccc(F)c(C(=O)O)c1)S(=O)(=O)N(C)[C@H](C1CCCCC1)CN2c1ccccc1 [Example 410]
< 100 nM | CN1[C@H](C2CCCCC2)CN(c2ccccc2)c2cc(O[C@H]3C[C@H](F)C3)c(-c3ccc(F)c(C(=O)O)c3)cc2S1(=O)=O [Example 381]
100 to 1000 nM | CC(Oc1cc2c(cc1-c1cc(F)c(C(=O)O)s1)S(=O)(=O)N(C)[C@H](C1CCCCC1)CN2c1ccccc1)c1nccs1 (stereo partly shown) [Example 502]
< 100 nM | COCCOc1cc2c(cc1-c1cc(NC(=O)OCC3CC(F)(F)C3)c(C(=O)O)s1)S(=O)(=O)N(C)[C@H](C1CCCCC1)CN2c1ccccc1 [Example 519]
< 100 nM | CN1[C@H](C2CCCCC2)CN(c2ccccc2)c2cc(OCc3ccccc3)c(-c3cc(F)c(C(=O)O)s3)cc2S1(=O)=O [Example 508]
< 100 nM | CN1[C@H](C2CCCCC2)CN(c2ccccc2)c2cc(Cl)c(-c3sc(C(=O)O)cc3F)cc2S1(=O)=O [Example 119]
100 to 1000 nM | Cc1cc(COc2cc3c(cc2-c2cc(F)c(C(=O)O)s2)S(=O)(=O)N(C)[C@H](C2CCCCC2)CN3c2ccccc2)cs1 [Example 493]
100 to 1000 nM | CC(=O)NS(=O)(=O)c1cccc(-c2cc3c(cc2Cl)N(c2ccccc2)C[C@@H](C2CCC2)N(C)S3(=O)=O)c1 [Example 228]
> 1000 nM | CN1[C@@H](Cc2ccc(Cl)cc2)CN(c2ccccc2)c2cc(C#N)c(-c3cccc(C(=O)O)c3)cc2S1(=O)=O [Example 13]
< 100 nM | CN1[C@H](C2CCCCC2)CN(c2ccccc2)c2cc(OCc3cscc3F)c(-c3cc(F)c(C(=O)O)s3)cc2S1(=O)=O [Example 488]
< 100 nM | CC(C)C[C@@H]1CN(c2ccccc2)c2cc(Oc3ccccc3Cl)c(-c3ccc(F)c(C(=O)O)c3)cc2S(=O)(=O)N1C [Example 431]
100 to 1000 nM | CN1[C@H](C2CCCCC2)CNc2cc(C3CCC3)c(-c3ccc(F)c(C(=O)O)c3)cc2S1(=O)=O [Example 586]

EC50 | Structure (SMILES)
> 1000 nM | CN1[C@H](COc2ccccc2)CN(c2ccccc2)c2cc(Cl)c(-c3ccc(F)c(C(=O)O)c3)cc2S1(=O)=O [Example 100, (S)-5-(7-chloro-2-methyl-1,1-dioxido-3-(phenoxymethyl)-5-phenyl-2,3,4,5-tetrahydrobenzo[f][1,2,5]thiadiazepin-8-yl)-2-fluorobenzoic acid]
100 to 1000 nM | CCCC[C@@H]1CN(c2ccccc2)c2cc(Oc3ccc(F)cc3)c(-c3ccc(F)c(C(=O)O)c3)cc2S(=O)(=O)N1C [Example 421]
> 1000 nM | CN1[C@H](C2CCCCC2)CN(c2ccccc2)c2cc(Cl)c(-c3cc(C(=O)O)c4cn[nH]c4c3)cc2S1(=O)=O [Example 208, (R)-6-(7-chloro-3-cyclohexyl-2-methyl-1,1-dioxido-5-phenyl-2,3,4,5-tetrahydrobenzo[f][1,2,5]thiadiazepin-8-yl)-1H-indazole-4-carboxylic acid]
100 to 1000 nM | CC(C)CC1CN(C2CCC2)c2cc(Cl)c(-c3cccc(C(=O)O)c3)cc2S(=O)(=O)N1C (stereo not shown) [Example 328]
> 1000 nM | CCC1CN(c2ccccc2)c2cc(Cl)c(-c3ccc(F)c(C(=O)O)c3)cc2S(=O)(=O)N1C (stereo not shown) [Example 45]
< 100 nM | CN1[C@H](C2CCCCC2)CN(c2ccccc2)c2cc(Cl)c(-c3cc(NC(=O)OC4CC4)c(C(=O)O)s3)cc2S1(=O)=O [Example 249]
> 1000 nM | CC(C)C[C@@H]1CN(c2ccccc2)c2cc(Cl)c(-c3ccc(Cl)c(C(N)=O)c3)cc2S(=O)(=O)N1C [Example 166]
100 to 1000 nM | CC(C)C[C@@H]1CN(c2ccccc2)c2cc(N(C)c3ccc(F)cc3)c(-c3ccc(Cl)c(C(=O)O)c3)cc2S(=O)(=O)N1C [Example 554]
100 to 1000 nM | CC(C)CC1CN(c2ccccc2F)c2cc(Cl)c(-c3cccc(C(=O)O)c3)cc2S(=O)(=O)N1C (stereo not shown) [Example 330]
100 to 1000 nM | CN1[C@H](CC2CCC2)CN(c2ccccc2)c2cc(Cl)c(-c3ccc(Cl)c(C(=O)O)c3)cc2S1(=O)=O [Example 76]
> 1000 nM | CCCC[C@H]1CN(c2ccccc2)c2cc(N3CCCC3)c(-c3cccc(C(=O)O)c3)cc2S(=O)(=O)N1C [Example 538]
< 100 nM | CN1[C@H](C2CCCCC2)CN(c2ccccc2)c2cc(Cl)c(-c3cc(C(=O)O)ccc3F)cc2S1(=O)=O [Example 150, (R)-3-(7-chloro-3-cyclohexyl-2-methyl-1,1-dioxido-5-phenyl-2,3,4,5-tetrahydrobenzo[f][1,2,5]thiadiazepin-8-yl)-4-fluorobenzoic acid]
> 1000 nM | CN1[C@@H](CC2CC2)CN(c2ccccc2)c2cc(Cl)c(-c3ccc(F)c(C(=O)O)c3)cc2S1(=O)=O [Example 42]
< 100 nM | CCCCCNc1cc2c(cc1-c1ccc(F)c(C(=O)O)c1)S(=O)(=O)N(C)[C@H](C1CCCCC1)CN2c1ccccc1 [Example 528]
> 1000 nM | CN1[C@H](C2CCCCC2)CN(c2ccccc2)c2cc(Cl)c(-c3ccc4c(c3)C(=O)NC4=O)cc2S1(=O)=O [Example 197]
< 100 nM | Cc1ccc(Cl)c(Oc2cc3c(cc2-c2ccc(F)c(C(=O)O)c2)S(=O)(=O)N(C)[C@H](CC(C)C)CN3c2ccccc2)c1 [Example 436]
100 to 1000 nM | CN1[C@H](C2CCCCC2)CN(c2ccccc2)c2cc(C3CC3)c(-c3cc(F)c(F)c(C(=O)O)c3)cc2S1(=O)=O [Example 583, (R)-5-(3-cyclohexyl-7-cyclopropyl-2-methyl-1,1-dioxido-5-phenyl-2,3,4,5-tetrahydrobenzo[f][1,2,5]thiadiazepin-8-yl)-2,3-difluorobenzoic acid]
< 100 nM | COCCOc1cc2c(cc1-c1cc(C)c(C(=O)O)s1)S(=O)(=O)N(C)[C@H](C1CCCCC1)CN2c1ccccc1 [Example 499]
100 to 1000 nM | CC(=O)N1CCC(Oc2cc3c(cc2-c2ccc(F)c(C(=O)O)c2)S(=O)(=O)N(C)[C@H](C2CCCCC2)CN3c2ccccc2)CC1 [Example 395, (R)-5-(7-((1-acetylpiperidin-4-yl)oxy)-3-cyclohexyl-2-methyl-1,1-dioxido-5-phenyl-2,3,4,5-tetrahydrobenzo[f][1,2,5]thiadiazepin-8-yl)-2-fluorobenzoic acid]
> 1000 nM | CN1[C@H](CBr)CN(c2ccccc2)c2cc(Cl)c(-c3ccc(F)c(C(=O)O)c3)cc2S1(=O)=O [Example 107, (S)-5-(3-(bromomethyl)-7-chloro-2-methyl-1,1-dioxido-5-phenyl-2,3,4,5-tetrahydrobenzo[f][1,2,5]thiadiazepin-8-yl)-2-fluorobenzoic acid]
< 100 nM | COc1c(F)cccc1Oc1cc2c(cc1-c1ccc(F)c(C(=O)O)c1)S(=O)(=O)N(C)[C@H](C1CCCCC1)CN2c1ccccc1 [Example 407]
100 to 1000 nM | CC(C)CC1CN(c2ccccc2)c2cc(N3CCCC3)c(-c3cccc(C(=O)O)c3)cc2S(=O)(=O)N1C (stereo not shown) [Example 544]

Structure (SMILES) | EC50
COCCOc1cc2c(cc1-c1cc(NC(=O)OC(C)(C)C)c(C(=O)O)s1)S(=O)(=O)N(C)[C@H](C1CCCCC1)CN2c1ccccc1 [Example 515, (R)-3-((tert-butoxycarbonyl)amino)-5-(3-cyclohexyl-7-(2-methoxyethoxy)-2-methyl-1,1-dioxido-5-phenyl-2,3,4,5-tetrahydrobenzo[f][1,2,5]thiadiazepin-8-yl)thiophene-2-carboxylic acid] | < 100 nM
CN1[C@H](C2CCCCC2)CN(c2ccccc2)c2cc(OC3CC(C)(C)C3)c(-c3cc(F)c(C(=O)O)s3)cc2S1(=O)=O [Example 483, (R)-5-(3-cyclohexyl-7-(3,3-dimethylcyclobutoxy)-2-methyl-1,1-dioxido-5-phenyl-2,3,4,5-tetrahydrobenzo[f][1,2,5]thiadiazepin-8-yl)-3-fluorothiophene-2-carboxylic acid] | < 100 nM
